Consider 21 molecules from patent US9738655B2, “Tetrahydroisoquinolines containing substituted azoles as factor XIa inhibitors” (BRISTOL-MYERS SQUIBB COMPANY, priority 2013, dated 2017).

pKi: −log10 of the molar value. Structures can show the parent of a compound that is named as a salt. Where two headings read alike, the source gives them in different places.

For experiment [1], the target named is purified human plasma kallikrein (Homo sapiens (Human), UniProt P03952). The experiment can be described thus: Plasma kallikrein enzyme inhibition assay (chromogenic substrate S-2302). In kind it is biochemical.
Chain of purified human plasma kallikrein (P03952 391-638): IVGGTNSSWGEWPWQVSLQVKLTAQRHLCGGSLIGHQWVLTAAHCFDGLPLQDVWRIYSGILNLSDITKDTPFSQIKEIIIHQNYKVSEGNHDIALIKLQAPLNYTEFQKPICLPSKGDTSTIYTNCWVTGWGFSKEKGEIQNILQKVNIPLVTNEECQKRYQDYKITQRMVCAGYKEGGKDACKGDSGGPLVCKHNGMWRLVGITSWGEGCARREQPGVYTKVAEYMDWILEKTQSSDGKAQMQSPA
Chain of purified human plasma kallikrein (P03952 20-390 partner): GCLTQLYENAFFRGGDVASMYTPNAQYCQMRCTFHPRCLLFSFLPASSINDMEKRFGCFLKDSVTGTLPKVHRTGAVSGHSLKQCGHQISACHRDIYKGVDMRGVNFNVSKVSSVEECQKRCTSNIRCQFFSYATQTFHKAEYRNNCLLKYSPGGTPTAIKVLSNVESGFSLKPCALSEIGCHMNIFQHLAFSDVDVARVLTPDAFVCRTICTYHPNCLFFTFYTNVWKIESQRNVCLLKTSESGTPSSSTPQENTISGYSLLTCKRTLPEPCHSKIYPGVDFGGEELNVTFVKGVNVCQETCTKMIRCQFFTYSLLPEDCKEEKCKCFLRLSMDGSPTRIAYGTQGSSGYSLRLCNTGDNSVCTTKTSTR
Experiment [2] has as its target purified human Factor XIa (Homo sapiens (Human), UniProt P03951). The experiment can be described thus: Factor XIa enzyme inhibition assay (chromogenic substrate S-2366).
[3] abbreviates: measured at 25° C. (no asterisk), TFA salt.
The mark [4] stands for this setting: read-out: Factor XIa Ki, measured at 25° C.
Where [5] appears, read: read-out: Factor XIa Ki, measured at 25° C., TFA salt.
Setting [6] is: measured at 25° C. (no asterisk).

By pKi is commonly meant the negative decadic logarithm of the Ki, by convention in mol/L.

Chain of purified human Factor XIa (P03951 388-625): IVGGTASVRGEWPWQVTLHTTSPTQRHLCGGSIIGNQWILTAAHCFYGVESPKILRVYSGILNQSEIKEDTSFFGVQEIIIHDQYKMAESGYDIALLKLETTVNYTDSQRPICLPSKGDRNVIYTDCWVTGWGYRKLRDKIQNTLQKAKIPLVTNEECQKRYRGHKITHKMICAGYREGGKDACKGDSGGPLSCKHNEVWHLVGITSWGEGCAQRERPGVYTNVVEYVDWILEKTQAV
Chain of purified human Factor XIa (P03951 19-387 partner): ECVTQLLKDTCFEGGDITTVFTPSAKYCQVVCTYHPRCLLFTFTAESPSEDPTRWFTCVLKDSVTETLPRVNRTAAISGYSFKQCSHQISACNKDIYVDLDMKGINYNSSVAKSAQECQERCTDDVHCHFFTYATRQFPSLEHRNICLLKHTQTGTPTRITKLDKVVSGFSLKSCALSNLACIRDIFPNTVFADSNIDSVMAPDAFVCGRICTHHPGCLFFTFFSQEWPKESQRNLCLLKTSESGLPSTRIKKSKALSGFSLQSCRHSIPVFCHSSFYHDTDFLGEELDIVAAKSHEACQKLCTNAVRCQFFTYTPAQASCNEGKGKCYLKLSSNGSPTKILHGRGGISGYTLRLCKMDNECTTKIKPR

In the case of `COC1CCN(c2cccc3c2CCN(C(=O)[C@H]2CC(c4cccc(Cl)c4F)=NO2)[C@@H]3C(=O)Nc2cccnc2)CC1` (single isomer, unassigned) [Example 241, TFA salt], the results for the pKi in experiment [1] (measured at 37° C. (*)) and in experiment [2] were 7.18 and 8.06, respectively.

For `COC1CCN(c2cccc3c2CCN(C(=O)[C@H]2CC(c4cccc(Cl)c4F)=NO2)[C@H]3C(=O)Nc2cccnc2)CC1` (single isomer, unassigned) [Example 242, TFA salt], the results for the negative-log Ki (pKi) in experiment [1] (measured at 37° C. (*)) and in experiment [2] were 5.91 and 6.73, respectively.

For the molecule `COC1CCN(c2cccc3c2CCN(C(=O)[C@H]2CC(c4cccc(Cl)c4F)=NO2)[C@@H]3C(=O)Nc2ccc(C(=O)O)cc2F)CC1` (single isomer, unassigned) [Example 243, TFA salt], the pKi is 7.42 in experiment [1] (measured at 37° C. (*)) and > 8.30 in experiment [2].

Turning to `COC1CCN(c2cccc3c2CCN(C(=O)[C@H]2CC(c4cccc(Cl)c4F)=NO2)[C@H]3C(=O)Nc2ccc(C(=O)O)cc2F)CC1` (single isomer, unassigned) [Example 244, TFA salt], the pKi in experiment [1] (measured at 37° C. (*)) was 6.20; in experiment [2], 7.41.

With `CN(C)C(=O)C1CCN(c2cccc3c2CCN(C(=O)C2CC(c4cccc(Cl)c4F)=NO2)C3C(=O)Nc2ccc(C(=O)O)cc2)CC1` (single isomer, unassigned) [Example 278, 4-(2-(3-(3-chloro-2-fluorophenyl)-4,5-dihydroisoxazole-5-carbonyl)-5-(4-(dimethylcarbamoyl)piperidin-1-yl)-1,2,3,4-tetrahydroisoquinoline-1-carboxamido)benzoic acid, TFA salt], the pKi in experiment [1] (setting [3]) is 8.70; in experiment [2] (setting [4]), > 8.30.

Turning to `CN(C)C(=O)C1CCN(c2cccc3c2CCN(C(=O)C2CC(c4cccc(Cl)c4F)=NO2)C3C(=O)Nc2ccc(C(=O)O)cc2)CC1` (single isomer, unassigned) [Example 279, 4-(2-(3-(3-chloro-2-fluoropheny)-4,5-dihydroisoxazole-5-carbonyl)-5-(4-(dimethylcarbamoyl)piperidin-1-yl)-1,2,3,4-tetrahydroisoquinoline-1-carboxamido)benzoic acid, TFA salt], the pKi was 7.51 in experiment [1] (setting [3]) and > 8.30 in experiment [2] (setting [4]).

Take `CN1CCN(c2cccc3c2CCN(C(=O)C2CC(c4cccc(Cl)c4F)=NO2)C3C(=O)Nc2ccc(C(=O)O)cc2)CC1=O` (single isomer, unassigned) [Example 280, 4-(2-(3-(3-chloro-2-fluorophenyl)-4,5-dihydroisoxazole-5-carbonyl)-5-(4-methyl-3-oxopiperazin-1-yl)-1,2,3,4-tetrahydroisoquinoline-1-carboxamido)benzoic acid, TFA salt]: the pKi is 6.55 in experiment [1] (setting [3]) and 7.44 in experiment [2] (setting [5]).

Take `CN1CCN(c2cccc3c2CCN(C(=O)C2CC(c4cccc(Cl)c4F)=NO2)C3C(=O)Nc2ccc(C(=O)O)cc2)CC1=O` (single isomer, unassigned) [Example 281, 4-(2-(3-(3-chloro-2-fluorophenyl)-4,5-dihydroisoxazole-5-carbonyl)-5-(4-methyl-3-oxopiperazin-1-yl)-1,2,3,4-tetrahydroisoquinoline-1-carboxamido)benzoic acid, TFA]: the negative-log Ki (pKi) in experiment [1] (measured at 25° C. (no asterisk), TFA) was 7.10; in experiment [2] (read-out: Factor XIa Ki, measured at 25° C., TFA) it was 7.89.

Turning to `CN1CCN(c2cccc3c2CCN(C(=O)C2CC(c4cccc(Cl)c4F)=NO2)C3C(=O)Nc2ccc(C(=O)O)cc2)CC1=O` (single isomer, unassigned) [Example 282, 4-(2-(3-(3-chloro-2-fluorophenyl)-4,5-dihydroisoxazole-5-carbonyl)-5-(4-methyl-3-oxopiperazin-1-yl)-1,2,3,4-tetrahydroisoquinoline-1-carboxamido)benzoic acid, TFA salt], the pKi is 8.73 in experiment [1] (setting [3]) and > 8.30 in experiment [2] (setting [5]).

Take `CN1CCN(c2cccc3c2CCN(C(=O)C2CC(c4cccc(Cl)c4F)=NO2)C3C(=O)Nc2ccc(C(=O)O)cc2)CC1=O` (single isomer, unassigned) [Example 283, 4-(2-(3-(3-chloro-2-fluorophenyl)-4,5-dihydroisoxazole-5-carbonyl)-5-(4-methyl-3-oxopiperazin-1-yl)-1,2,3,4-tetrahydroisoquinoline-1-carboxamido)benzoic acid, TFA salt]: the pKi in experiment [1] (setting [3]) was 7.12; in experiment [2] (setting [5]) it was 8.08.

With `O=C(NC12CCC(C(=O)O)(CC1)CC2)[C@@H]1c2cccc(-c3cncnc3)c2CCN1C(=O)c1cn(-c2cccc(Cl)c2F)nn1` (single isomer, unassigned; enantiomer a) [Example 144, 4-(2-{[1-(3-Chloro-2-fluorophenyl)-1H-1,2,3-triazol-4-yl]carbonyl}-5-(pyrimidin-5-yl)-1,2,3,4-tetrahydroisoquinoline-1-amido)bicyclo[2.2.2]octane-1-carboxylic acid, 1 TFA (enantiomer A)], the figures for the pKi in experiment [1] (measured at 37° C. (*)) and in experiment [2] (setting [4]) were 4.93 and 5.52, respectively.

Consider `O=C(NC12CCC(C(=O)O)(CC1)CC2)[C@H]1c2cccc(-c3cncnc3)c2CCN1C(=O)c1cn(-c2cccc(Cl)c2F)nn1` (single isomer, unassigned; enantiomer b) [Example 145, 4-(2-{[1-(3-Chloro-2-fluorophenyl)-1H-1,2,3-triazol-4-yl]carbonyl}-5-(pyrimidin-5-yl)-1,2,3,4-tetrahydroisoquinoline-1-amido)bicyclo[2.2.2]octane-1-carboxylic acid, 1 TFA (enantiomer B)], for which the pKi in experiment [1] (measured at 37° C. (*)) was 6.60; in experiment [2] (setting [4]), 8.10.

In the case of `O=C(Nc1ccc2ncccc2c1)[C@H]1c2cccc(-c3cncnc3)c2CCN1C(=O)c1cn(-c2cccc(Cl)c2F)nn1` (stereo in doubt) [Example 125, 2-(1-(3-Chloro-2-fluorophenyl)-1H-1,2,3-triazole-4-carbonyl)-5-(pyrimidin-5-yl)-N-(quinolin-6-yl)-1,2,3,4-tetrahydroisoquinoline-1-carboxamide, TFA salt], the pKi in experiment [1] (measured at 37° C. (*)) was 7.27; in experiment [2] (setting [4]), 8.02.

Take `O=C(O)c1ccc(NC(=O)C2c3ccccc3CCN2C(=O)c2cn(-c3cccc(Cl)c3F)nn2)cc1` (stereo not drawn) [Example 1, 4-(2-(1-(3-Chloro-2-fluorophenyl)-1H-1,2,3-triazole-4-carbonyl)-1,2,3,4-tetrahydroisoquinoline-1-carboxamido)benzoic acid]: the pKi in experiment [1] (setting [6]) is 7.68; in experiment [2] (setting [4]) it was 7.87.

Consider `O=C(O)c1ccc(NC(=O)[C@@H]2c3ccccc3CCN2C(=O)c2cn(-c3cccc(Cl)c3F)nn2)cc1` [Example 3, (S)-4-(2-(1-(3-Chloro-2-fluorophenyl)-1H-1,2,3-triazole-4-carbonyl)-1,2,3,4-tetrahydroisoquinoline-1-carboxamido)benzoic acid], for which the pKi in experiment [1] (setting [6]) was 7.88; in experiment [2] (setting [4]) it was 8.19.

Consider `CN(C)CCNC(=O)c1ccc(-c2cccc3c2CCN(C(=O)c2cn(-c4cccc(Cl)c4F)nn2)C3C(=O)Nc2ccc(C(=O)O)cc2)cc1` (stereo not drawn) [Example 6, 4-(2-(1-(3-Chloro-2-fluorophenyl)-1H-1,2,3-triazole-4-carbonyl)-5-(4-((2-(dimethylamino)ethyl)carbamoyl)phenyl)-1,2,3,4-tetrahydroisoquinoline-1-carboxamido)benzoic acid], for which the pKi in experiment [1] (setting [6]) is 8.62; in experiment [2] (setting [4]), > 8.30.

Take `Cc1c(C(=O)N2CCc3c(-c4ccc(C(=O)NCCN(C)C)cc4)cccc3C2C(=O)Nc2ccc(C(=O)O)cc2)nnn1-c1cccc(Cl)c1F` (stereo not drawn) [Example 7, 4-(2-(1-(3-Chloro-2-fluorophenyl)-5-methyl-1H-1,2,3-triazole-4-carbonyl)-5-(4-((2-(dimethylamino)ethyl)carbamoyl)phenyl)-1,2,3,4-tetrahydroisoquinoline-1-carboxamido)benzoic acid, TFA salt]: the values for the pKi in experiment [1] (setting [6]) and in experiment [2] (setting [4]) were 7.52 and > 8.30, respectively.

`CN(C)CCNC(=O)c1ccc(-c2cccc3c2CCN(C(=O)c2cnn(-c4cccc(Cl)c4F)c2)C3C(=O)Nc2ccc(C(=O)O)cc2)cc1` (stereo not drawn) [Example 8, 4-(2-(1-(3-Chloro-2-fluorophenyl)-1H-pyrazole-4-carbonyl)-5-(4-((2-(dimethylamino)ethyl)carbamoyl)phenyl)-1,2,3,4-tetrahydroisoquinoline-1-carboxamido)benzoic acid, TFA salt]: the pKi in experiment [1] (setting [6]) was 8.47; in experiment [2] (setting [4]), > 8.30.

For `CN(C)CCNC(=O)c1ccc(-c2cccc3c2CCN(C(=O)c2cn(-c4cccc(Cl)c4F)nn2)[C@@H]3C(=O)Nc2ccc(C(=O)O)cc2)cc1` [Example 10, (S)-4-(2-(1-(3-Chloro-2-fluorophenyl)-1H-1,2,3-triazole-4-carbonyl)-5-(4-((2-(dimethylamino)ethyl)carbamoyl)phenyl)-1,2,3,4-tetrahydroisoquinoline-1-carboxamido)benzoic acid, TFA salt], the figures for the pKi in experiment [1] (setting [6]) and in experiment [2] (setting [4]) were 8.97 and > 8.30, respectively.

With `CN(C)CCNC(=O)c1ccc(-c2cccc3c2CCN(C(=O)c2cn(-c4cccc(Cl)c4F)nn2)[C@H]3C(=O)Nc2ccc(C(=O)O)cc2)cc1` [Example 11, (R)-4-(2-(1-(3-Chloro-2-fluorophenyl)-1H-1,2,3-triazole-4-carbonyl)-5-(4-((2-(dimethylamino)ethyl)carbamoyl)phenyl)-1,2,3,4-tetrahydroisoquinoline-1-carboxamido)benzoic acid TFA salt], the negative logarithm of the Ki (pKi) in experiment [1] (setting [6]) is 5.98; in experiment [2] (read-out: Factor XIa Ki) it was 6.78.

On to `O=C(O)c1ccc(NC(=O)C2c3cccc(-c4cncnc4)c3CCN2C(=O)c2cn(-c3cccc(Cl)c3F)nn2)cc1` (stereo not drawn) [Example 12, 4-(2-(1-(3-Chloro-2-fluorophenyl)-1H-1,2,3-triazole-4-carbonyl)-5-(pyrimidin-5-yl)-1,2,3,4-tetrahydroisoquinoline-1-carboxamido)benzoic acid], for which the pKi is 8.01 in experiment [1] (setting [6]) and > 8.30 in experiment [2] (setting [4]).
